Experimental data reported in patent US12459951B2, “Compounds that interact with RAS superfamily proteins for treatment of cancers, inflammatory diseases, rasopathies, and fibrotic disease” (SHY Therapeutics, LLC, priority 2022, dated 2025).

Tests used:
KRas G12D mutant = assay: Ras GTP Binding Domain Inhibition Assay (Ras Superfamily Assay); conditions: 20 μM compound; for KRas G12D mutant + SOS: % inh.: with SOS; for KRas G12D mutant: % inh.: without SOS
In short: (§1)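 Ni-plate capture of His-tagged protein (10-30 μg/mL, o/n 4° C); cpd 20 μM or dilution series, 1% DMSO, 3 h RT ± Sos 556-1049 last h; 100 nM Cy-labelled GTP 45 min RT; 3× wash; fluorescence read.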

Rac-1 = biological target: T1, Rac-1 (Homo sapiens, UniProt P63000); assay: as above; conditions: read-out: Rac-1: % inh.
T1 construct: made in house
In short: as §1

KRas wild type = assay: as above; conditions: 20 μM compound; for KRas wild type + SOS: % inh.: with SOS; for KRas wild type: % inh.: without SOS
In short: as §1

TNF-alpha = TNF-alpha Quantification Assay (ELISA), LPS-stimulated RAW 264.7; assay type: cell-based; conditions: Mus musculus, RAW264.7; at 10 μM; read-out: TNFα: % inh.
Akt phosphorylation = assay: Akt Phosphorylation Assay (western blot), Panc-1; assay type: cell-based, human; conditions: at 10 μM, * = activation
In short: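 Panc-1 (KRas G12D) cells were treated with compound at 10 μM final (0.3% DMSO) for 6 h at 37 °C, or with serial dilutions for IC50. Cells were either serum-starved overnight in 0.5% FBS and then stimulated with 1.5 ng/ml EGF for 15 min, or kept in 10% FBS without stimulation. Akt Ser473 phosphorylation in lysates was read by western blot.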

SMILES | KRas G12D mutant + SOS: % inh. (KRas G12D mutant) | KRas G12D mutant: % inh. (KRas G12D mutant) | inhibition at 20 µM (Rac-1) | KRas wild type + SOS: % inh. (KRas wild type) | KRas wild type: % inh. (KRas wild type) | inhibition at 10 µM (TNF-alpha) | % inh of Akt phosphorylation in Panc-1 (Akt phosphorylation)
COCC1CCN(c2nc(-c3nccn3C)nn3cc(-c4ccn(C(C)C)n4)c(C)c23)C1 (racemic) [Compound 2, rac 6-(1-Isopropyl-1H-pyrazol-3-yl)-4-(3-(methoxymethyl)pyrrolidin-1-yl)-5-methyl-2-(1-methyl-1H-imidazol-2-yl)pyrrolo[2,1-f][1,2,4]triazine] | 0 (0 = 0% inhibition) | 0 (0 = 0% inhibition) | 0% | 0 (0 = 0% inhibition) | 0 (0 = 0% inhibition) | 25 to 49% | C* (46-84% activation)
COC1CCCN(c2nc(-c3nccn3C)nn3cc(-c4ccn(C(C)C)n4)c(C)c23)C1 (racemic) [Compound 4, rac 6-(1-Isopropyl-1H-pyrazol-3-yl)-5-methyl-2-(1-methyl-1H-imidazol-2-yl)-4-(3-(oxo-γ6-methyl)piperidin-1-yl)pyrrolo[2,1-f][1,2,4]triazine] | 0 (0 = 0% inhibition) | A (A = 1-25% inhibition) | 1 to 25% | A (A = 1-25% inhibition) | A (A = 1-25% inhibition) | 75 to 100% | 0 (0% inhibition)
COCCNc1nc(-c2nccn2C)nn2cc(-c3ccn(C(C)C)n3)c(C)c12 [Compound 5, 6-(1-Isopropyl-1H-pyrazol-3-yl)-N-(2-methoxyethyl)-5-methyl-2-(1-methyl-1H-imidazol-2-yl)pyrrolo[2,1-f][1,2,4]triazin-4-amine] |  |  | 26 to 49% |  |  | 0% | 0 (0% inhibition)

More lines, main results first:

KRas G12D mutant + SOS: % inh. (KRas G12D mutant) | KRas G12D mutant: % inh. (KRas G12D mutant) | inhibition at 20 µM (Rac-1) | KRas wild type + SOS: % inh. (KRas wild type) | KRas wild type: % inh. (KRas wild type) | SMILES | inhibition at 10 µM (TNF-alpha) | % inh of Akt phosphorylation in Panc-1 (Akt phosphorylation)
0 (0 = 0% inhibition) | A (A = 1-25% inhibition) | 1 to 25% | A (A = 1-25% inhibition) | 0 (0 = 0% inhibition) | CO[C@H]1CC[C@@H](Nc2nc(-c3nccn3C)nn3cc(-c4ccn(C(C)C)n4)c(C)c23)C1 (racemic) [Compound 1, rac 6-(1-Isopropyl-1H-pyrazol-3-yl)-N-((1R,3S)-3-methoxycyclopentyl)-5-methyl-2-(1-methyl-1H-imidazol-2-yl)pyrrolo[2,1-f][1,2,4]triazin-4-amine] | 1 to 24% | C* (46-84% activation)
0 (0 = 0% inhibition) | 0 (0 = 0% inhibition) | 1 to 25% | 0 (0 = 0% inhibition) | 0 (0 = 0% inhibition) | COC[C@@H]1CC[C@@H]1CNc1nc(-c2nccn2C)nn2cc(-c3ccn(C(C)C)n3)c(C)c12 (racemic) [Compound 3, rac 6-(1-Isopropyl-1H-pyrazol-3-yl)-N-(((1S,2R)-2-(methoxymethyl)cyclobutyl)methyl)-5-methyl-2-(1-methyl-1H-imidazol-2-yl)pyrrolo[2,1-f][1,2,4]triazin-4-amine] | 25 to 49% | B (26-49% inhibition)
 |  | 76 to 100% |  |  | Cc1c(-c2ccn(C(C)C)n2)cn2nc(-c3nccn3C)nc(Nc3ccn(C4CC4)n3)c12 [Compound 84, N-(1-Cyclopropyl-1H-pyrazol-3-yl)-6-(1-isopropyl-1H-pyrazol-3-yl)-5-methyl-2-(1-methyl-1H-imidazol-2-yl)pyrrolo[2,1-f][1,2,4]triazin-4-amine] | 0% | D* (85-100% activation)
